Molecules are shown by their SMILES. Where two headings read alike, the source gives them in different places.

The source of these data is US20230293517A1, “ANTAGONIST COMPOUNDS” (AdoRx Therapeutics Limited, priority 2020, published 2023).

One test relates to human PBMCs. As to the kind of experiment: CD3/CD28 stimulated IL-2 release NECA reversal assay in human PBMCs. The note with it: PBMC, 1 uM NECA, 24 hours, IL-2 in culture supernatant. In kind it is cell-based. How it is done: Biological Example—CD3/CD28 Stimulated IL-2 Release NECA Reversal Assay in Human PBMCs
Blood is drawn from healthy volunteers using sodium citrate as the anticoagulant (0.3% final concentration). After centrifugation of the blood over Histopaque-1077, PBMCs are collected from the Histopaque/plasma interface and washed twice in PBS (300 g for 10 mins at room temp). Cells are plated at 50,000 cells/well in 150 μl RPMI/10% FCS in 96-well cell culture plates that have been precoated with 1 ug/ml CD3 antibody. 50 μl diluted compound mix is added to the cells, to obtain final concentrations of 1 ug/ml CD28 antibody, 1 uM NECA and 0.003-10 μM adenosine receptor antagonist. Assay plates are incubated for 24 hours at 37° C. in a humidified incubator. Culture supernatant is tested for IL-2 levels using the human IL-2 Tissue Culture Kit (Meso Scale Discovery). Data for dose-response curves is calculated as % inhibition with 100% inhibition defined from no agonist control wells (+CD3/28-NECA)

Test [1] concerns the target human Adenosine A2a receptor (Homo sapiens (Human), UniProt P29274). Briefly: Adenosine receptor TR-FRET binding assay (A2a). Particulars: inhibition of binding of 100 nM CA200645, CHO cell membranes. An outline of the steps:
(§1)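 Terbium-labelled human receptors in CHO cell membranes were incubated 2 h at room temperature with test compounds and fluorescent XAC tracer CA200645 (30 nM for A2b; 100 nM for A1, A2a, A3). TR-FRET 665/620 nm ratio gave specific binding; Ki derived from IC50 by Cheng–Prusoff.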
(TR-FRET usually uses a lanthanide donor and a delayed reading to cut background.)

Test [2] addresses human Adenosine A2b receptor (Homo sapiens (Human), UniProt P29275). Briefly: Adenosine receptor TR-FRET binding assay (A2b). The method, boiled down: as §1
Test [3] deals with CD8+T cells in human whole blood. As to the kind of experiment: Measurement of pCREB in CD8+T cells in human whole blood. In kind it is cell-based. The note with it: 3 μM NECA, rolipram. On the procedure:
Biological Example—Measurement of pCREB in CD8+T Cells in Human Whole Blood
Heparinised human whole blood was pre-incubated at 37° C. with serial dilutions of A2a antagonists for 20 min. and the phosphodiesterase inhibitor rolipram to amplify the pCREB response. The adenosine receptor agonist NECA is then added at a final concentration of 3 μM and following a 60 min incubation the blood is fixed and red blood cells lysed. White blood cells are isolated, permeabilized and stained with directly conjugated fluorescent antibodies to phospho-CREB (Alexa Fluor 488) and CD8 (Alexa Fluor 647) and the level of phospho-CREB in CD8+T cells is measured by FACS using a BD Accuri C6 Flow Cytometer.

The target in test [4] is human Adenosine A1 receptor (Homo sapiens (Human), UniProt P30542). Briefly: Adenosine receptor TR-FRET binding assay (A1). The note with it: inhibition of binding of 100 nM CA200645, CHO cell membranes. An outline of the steps: as §1
Sequence of human Adenosine A1 receptor (P30542 whole entry): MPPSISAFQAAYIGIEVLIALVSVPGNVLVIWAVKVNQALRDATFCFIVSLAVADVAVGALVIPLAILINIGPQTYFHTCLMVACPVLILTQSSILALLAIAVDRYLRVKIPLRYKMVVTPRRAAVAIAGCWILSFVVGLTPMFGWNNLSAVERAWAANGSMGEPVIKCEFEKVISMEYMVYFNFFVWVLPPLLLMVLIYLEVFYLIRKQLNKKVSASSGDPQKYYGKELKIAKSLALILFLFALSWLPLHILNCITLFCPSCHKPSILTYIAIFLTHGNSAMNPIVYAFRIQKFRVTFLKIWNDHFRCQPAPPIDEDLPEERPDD
The target in test [5] is human Adenosine A3 receptor (Homo sapiens (Human), UniProt P0DMS8). As to the kind of experiment: Adenosine receptor TR-FRET binding assay (A3). Particulars: inhibition of binding of 100 nM CA200645, CHO cell membranes. An outline of the steps: as §1
Sequence of human Adenosine A3 receptor (P0DMS8 whole entry): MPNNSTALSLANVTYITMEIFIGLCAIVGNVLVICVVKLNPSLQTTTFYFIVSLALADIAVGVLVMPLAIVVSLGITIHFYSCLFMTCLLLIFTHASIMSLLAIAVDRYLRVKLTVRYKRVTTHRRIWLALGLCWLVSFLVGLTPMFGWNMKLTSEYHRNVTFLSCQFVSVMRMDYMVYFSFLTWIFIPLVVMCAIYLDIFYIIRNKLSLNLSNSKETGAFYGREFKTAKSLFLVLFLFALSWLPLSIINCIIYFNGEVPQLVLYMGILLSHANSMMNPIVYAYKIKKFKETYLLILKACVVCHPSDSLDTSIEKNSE
The mark [6] stands for this setting: TR-FRET, inhibition of binding of 30 nM CA200645, CHO cell membranes.

Sequence of human Adenosine A2a receptor (P29274 whole entry): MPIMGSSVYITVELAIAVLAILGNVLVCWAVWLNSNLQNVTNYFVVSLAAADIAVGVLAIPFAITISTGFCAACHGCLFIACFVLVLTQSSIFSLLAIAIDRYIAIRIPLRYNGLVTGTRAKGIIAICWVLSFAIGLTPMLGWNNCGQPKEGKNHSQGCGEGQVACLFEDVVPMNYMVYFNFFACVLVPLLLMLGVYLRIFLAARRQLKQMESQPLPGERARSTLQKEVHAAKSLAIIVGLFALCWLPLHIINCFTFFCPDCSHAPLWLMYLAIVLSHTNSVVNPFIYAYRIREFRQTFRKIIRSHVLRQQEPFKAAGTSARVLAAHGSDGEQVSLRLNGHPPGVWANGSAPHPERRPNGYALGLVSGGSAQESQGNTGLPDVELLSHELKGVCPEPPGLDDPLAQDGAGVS
Sequence of human Adenosine A2b receptor (P29275 whole entry): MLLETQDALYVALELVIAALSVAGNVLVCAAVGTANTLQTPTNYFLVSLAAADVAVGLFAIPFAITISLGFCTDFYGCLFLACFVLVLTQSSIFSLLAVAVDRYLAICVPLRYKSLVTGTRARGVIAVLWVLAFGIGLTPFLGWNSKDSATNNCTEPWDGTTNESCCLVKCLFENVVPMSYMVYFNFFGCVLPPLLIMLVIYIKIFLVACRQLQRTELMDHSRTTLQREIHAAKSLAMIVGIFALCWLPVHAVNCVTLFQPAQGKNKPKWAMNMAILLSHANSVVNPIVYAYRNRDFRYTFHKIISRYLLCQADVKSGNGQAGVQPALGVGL

Turning to `Cc1cc(-c2sc(NC(=O)N3CCN[C@@H](C)C3)nc2-c2cccc(C#N)c2)cc(Cl)n1` [Example 5.4, (3S)-N-[5-(2-Chloro-6-methyl-4-pyridyl)-4-(3-cyanophenyl)thiazol-2-yl]-3-methyl-piperazine-1-carboxamide], the figures for the IC50 (in the test with human PBMCs; in test [3]) were 71.8 nM and 1950 nM, respectively. Further, the Ki in test [1] amounted to 1.03 nM; in test [2] it was 5.8 nM; in test [4], 111 nM; in test [5] it was 33 nM.

For the compound `Cc1cc(-c2sc(NC(=O)N3CCN[C@H](C)C3)nc2-c2cccc(C#N)c2)cc(Cl)n1` [Example 5.5, (3R)-N-[5-(2-Chloro-6-methyl-4-pyridyl)-4-(3-cyanophenyl)thiazol-2-yl]-3-methyl-piperazine-1-carboxamide], the values for the IC50 (in the test on human PBMCs; in test [3]) were 30.6 nM and 2690 nM, respectively. Further, the Ki in test [1] worked out at 0.94 nM; in test [2] (setting [6]), 2.4 nM; in test [4] it was 114 nM; in test [5], 70 nM.

Take `Cc1cc(-c2sc(NC(=O)N3CCN[C@H](C(C)(C)O)C3)nc2-c2cccc(C#N)c2)cc(Cl)n1` [Example 3.9]: the IC50 in the test on human PBMCs came to 17.9 nM; in test [3], 470 nM. Further, the Ki in test [1] worked out at 0.49 nM; in test [2] (setting [6]), 2.2 nM; in test [4], 81 nM; in test [5] it was 338 nM.

For `Cc1cc(-c2sc(NC(=O)N3CC(O)C3)nc2-c2cccc(C#N)c2)cc(C)n1` [Example 4.30, N-[4-(3-Cyanophenyl)-5-(2,6-dimethyl-4-pyridyl)thiazol-2-yl]-3-hydroxy-azetidine-1-carboxamide], the results for the IC50 (in the test on human PBMCs; in test [3]) were 1.3 nM and 60 nM, respectively. The Ki in test [1] came to 0.41 nM; in test [2] (setting [6]), 0.6 nM; in test [4], 7 nM; in test [5] it was 106 nM.

`Cc1cc(-c2sc(NC(=O)N3CC[C@H](S(C)(=O)=O)C3)nc2-c2cccc(C#N)c2)cc(C)n1` [Example 6.1, (3S)-N-[4-(3-Cyanophenyl)-5-(2,6-dimethyl-4-pyridyl)thiazol-2-yl]-3-methylsulfonyl-pyrrolidine-1-carboxamide]: the IC50 with human PBMCs came to 3.6 nM; in test [3], 150 nM. Besides, the Ki in test [1] is 1.05 nM; in test [2] (setting [6]), 2.1 nM; in test [5], 228 nM.

In the case of `Cc1cc(-c2sc(NC(=O)N3CC[C@H]3CO)nc2-c2cccc(C#N)c2)cc(C)n1` [Example 6.73, (2S)-N-[4-(3-Cyanophenyl)-5-(2,6-dimethyl-4-pyridyl)thiazol-2-yl]-2-(hydroxymethyl)azetidine-1-carboxamide], the IC50 amounted to 13.5 nM with human PBMCs and 200 nM in test [3].

Regarding `Cc1cc(-c2sc(NC(=O)N3CC4(CNC(=O)C4)C3)nc2-c2cccc(C#N)c2)cc(C)n1` [Example 6.55, N-[4-(3-Cyanophenyl)-5-(2,6-dimethyl-4-pyridyl)thiazol-2-yl]-6-oxo-2,7-diazaspiro[3.4]octane-2-carboxamide], the IC50 in the test on human PBMCs worked out at 2.2 nM; in test [3], 10 nM.

Take `Cc1cc(-c2sc(NC(=O)N3CCN4C(=O)OCC4C3)nc2-c2cccc(C#N)c2)cc(C)n1` (centres unmarked) [Example 6.13, N-[4-(3-Cyanophenyl)-5-(2,6-dimethyl-4-pyridyl)thiazol-2-yl]-3-oxo-5,6,8,8a-tetrahydro-1H-oxazolo[3,4-a]pyrazine-7-carboxamide]: the values for the IC50 (in the test with human PBMCs; in test [3]) were 3.7 nM and 140 nM, respectively. The Ki in test [1] came out at 0.4 nM; in test [2] (setting [6]), 3.4 nM; in test [4], 23 nM.

Consider `Cc1cc(-c2sc(NC(=O)N3CCC4(CC3)CNC(=O)N4C)nc2-c2cccc(C#N)c2)cc(C)n1` [Example 6.51, N-[4-(3-Cyanophenyl)-5-(2,6-dimethyl-4-pyridyl)thiazol-2-yl]-1-methyl-2-oxo-1,3,8-triazaspiro[4.5]decane-8-carboxamide], for which the IC50 in the test with human PBMCs stood at 6.1 nM; in test [3], 320 nM.

Regarding `Cc1cc(-c2sc(NC(=O)N3CC(C)(O)C3)nc2-c2cccc(C#N)c2)c(F)c(C)n1` [Example 6.67, N-[4-(3-Cyanophenyl)-5-(3-fluoro-2,6-dimethyl-4-pyridyl)thiazol-2-yl]-3-hydroxy-3-methyl-azetidine-1-carboxamide], the IC50 in the test with human PBMCs came to 10.6 nM; in test [3], 250 nM.

For the compound `Cc1cc(-c2sc(NC(=O)N3CC[C@@H](S(C)(=O)=O)C3)nc2-c2cccc(C#N)c2)cc(C)n1` [Example 6.9, (3R)-N-[4-(3-Cyanophenyl)-5-(2,6-dimethyl-4-pyridyl)thiazol-2-yl]-3-methylsulfonyl-pyrrolidine-1-carboxamide], the results for the IC50 (in the test on human PBMCs; in test [3]) were 4.3 nM and 160 nM, respectively. The Ki in test [1] was 0.88 nM; in test [2], 0.7 nM; in test [5] it was 412 nM.

On to `Cc1cc(-c2sc(NC(=O)N3CCC(C)(O)CC3)nc2-c2cccc(C#N)c2)cc(C)n1` [Example 6.96, N-[4-(3-Cyanophenyl)-5-(2,6-dimethyl-4-pyridyl)thiazol-2-yl]-4-hydroxy-4-methyl-piperidine-1-carboxamide], for which the Ki in test [1] was determined as 0.53 nM; in test [2] (setting [6]), 1.8 nM; in test [4], 10 nM; in test [5], 502 nM. Also, the IC50 in test [3] was found to be 30 nM.

Take `Cc1cc(-c2sc(NC(=O)N3CCC(C)(C#N)CC3)nc2-c2cccc(C#N)c2)c(F)c(C)n1` [Example 6.66, 4-Cyano-N-[4-(3-cyanophenyl)-5-(3-fluoro-2,6-dimethyl-4-pyridyl)thiazol-2-yl]-4-methyl-piperidine-1-carboxamide]: the IC50 is 4.3 nM with human PBMCs and 300 nM in test [3].

In the case of `Cc1cc(-c2sc(NC(=O)N3CC4(CCOCC4)C3)nc2-c2cccc(C#N)c2)cc(C)n1` [Example 6.54, N-[4-(3-Cyanophenyl)-5-(2,6-dimethyl-4-pyridyl)thiazol-2-yl]-7-oxa-2-azaspiro[3.5]nonane-2-carboxamide], the IC50 with human PBMCs stood at 3.3 nM; in test [3], 140 nM.

On to `Cc1cc(-c2sc(NC(=O)N3CC4(CNC(=O)N4)C3)nc2-c2cccc(C#N)c2)cc(C)n1` [Example 6.57, N-[4-(3-Cyanophenyl)-5-(2,6-dimethyl-4-pyridyl)thiazol-2-yl]-6-oxo-2,5,7-triazaspiro[3.4]octane-2-carboxamide], for which the figures for the IC50 (in the test on human PBMCs; in test [3]) were 2.6 nM and 60 nM, respectively.

Regarding `Cc1cc(-c2sc(NC(=O)N3CCC4(CCCC(=O)N4)CC3)nc2-c2cccc(C#N)c2)cc(C)n1` [Example 6.58, N-[4-(3-Cyanophenyl)-5-(2,6-dimethyl-4-pyridyl)thiazol-2-yl]-2-oxo-1,9-diazaspiro[5.5]undecane-9-carboxamide], the 50% inhibitory concentration (IC50) with human PBMCs was 8.5 nM; in test [3], 360 nM.

Regarding `Cc1cc(-c2sc(NC(=O)N3CCOC(C(C)(C)O)C3)nc2-c2cccc(C#N)c2)cc(C)n1` (centres unmarked) [Example 6.47, N-[4-(3-Cyanophenyl)-5-(2,6-dimethyl-4-pyridyl)thiazol-2-yl]-2-(1-hydroxy-1-methyl-ethyl)morpholine-4-carboxamide], the IC50 in the test with human PBMCs turned out to be 1.9 nM; in test [3], 80 nM. In addition, the values for the Ki in test [1], in test [2] and in test [4] were 0.37 nM, 2.5 nM and 38 nM, respectively.

As usually defined, the IC50 is the concentration at which inhibition is half-maximal. For orientation: Ki means the equilibrium dissociation constant of an inhibitor or competing ligand from its target.
